Our source for the LD30 dose values is patent publication US20210189352A1, “ENHANCED REPROGRAMMING OF SOMATIC CELLS” (IMBA - INSTITUT FÜR MOLEKULARE BIOTECHNOLOGIE GMBH, priority 2017, published 2021).

The subject of the assay is murine embryonic stem cell clone AN3-12. Nature of the assay: Etoposide treatment of mouse ES cells (LD30 dose). Type of assay: cell-based. Conditions: 8 day treatment, medium supplemented every day. The method, then: A murine embryonic stem cell clone, derived from a derivative of HMSc2 termed AN3-12, with doxycycline inducible Cas9 (T3G-Cas9-IRES-mcherry PGK-GFP-rtTA) was used for this study. The following ES cell medium (ESCM) was used: 450 ml DMEM (Sigma D1152); 75 ml FCS (Invitrogen); 5.5 ml P/S (Sigma P0781); 5.5 ml NEAA (Sigma M7145); 5.5 ml LGlu (Sigma G7513); 5.5 ml NaPyr (Sigma S8636); 0.55 ml beta-mercapto ethanol (Merck 805740; dilute 10 μl bME in 2.85 ml PBS for a 1000× stock), 7.5 μl LIF (IMBA-MolBioService; 2 mg/ml). Cell culture-grade dishes were from Greiner (Greiner 15 cm 639160) and NUNC (all other formats, e.g. 10 cm dish Nunclon A Surface, cat no. 150350; 6-well Nunclon A Surface, cat no. 140675). Cells were trypsinized and replated every 2nd day and frozen in FCS:ESCM:DMSO=4.5:4.5:1. Cells were tested for mycoplasma every second week. Etoposide treatment: Medium was supplemented every day with 3.3 nM etoposide, an LD30 dose for 8 day treatment (Sigma E2600000), 1000× etoposide stocks dissolved in PBS-10% EtOH were used. For doxycycline treatment, medium was supplemented every day with 1 μg/ml (Sigma). Cells are tested for mycoplasma contamination every second week.

Structures are written as SMILES.

The compound `COc1cc([C@@H]2c3cc4c(cc3[C@@H](O[C@@H]3O[C@@H]5CO[C@@H](C)O[C@H]5[C@H](O)[C@H]3O)[C@H]3COC(=O)[C@H]23)OCO4)cc(OC)c1O` [etoposide] had an LD30 dose of 3.3 nM.
